Laboratory results taken from paper PMC6388989 (Cancer Management and Research, 2019).
Entries after “also recorded” stand apart in the source; their conditions may differ.

Experiments:
[1] = tested on: NCI-H460 cells; type: cell-based, human
[2] = tested on: NCI-H460 cells; type: cell-based, human; remark: listed apart in the source
[3] = tested on: NCI-H460 cells; type: cell-based, human; settings: 48 hours
[4] = tested on: NCI-H460 cells; type: cell-based, human; remark: listed apart in the source
[5] = tested on: NCI-H460 cells; type: cell-based, human; settings: 48 hours; remark: listed apart in the source
[6] = tested on: NCI-H460 cells; type: cell-based, human; settings: 48 hours; remark: listed apart in the source
[7] = tested on: marker genes in NCI-H460 cells; type: cell-based, human; settings: 48 hours
[8] = tested on: protein markers in NCI-H460 cells; type: cell-based, human; settings: 48 hours
[9] = tested on: H460 cells; type: cell-based, human
[10] = tested on: H460 cells; type: cell-based, human; remark: listed apart in the source
[11] = tested on: NIH-3T3 cells; settings: at 50 µM
[12] = tested on: 3T3 cells

SMILES: C=C(C)[C@@H]1CC[C@]2(CO)CC[C@]3(C)[C@H](CC[C@@H]4[C@@]5(C)CC[C@H](O)C(C)(C)[C@@H]5CC[C@]43C)[C@@H]12 [Betulin (3), Lup-20 (29)-ene-3, 28-diol]
- activity against cancer cells compared to normal 3t3 cells [1]: four times more active
- reduction in wound healing rates of treated vs untreated cells [2]: approximate threefold reduction
- invasive ability of NCI-H460 cells [3]: inhibited in a dose-dependent manner
- induction of apoptosis (FACS) [4]: significantly underwent apoptosis in a dose-dependent manner
- mitochondrial membrane potential (Δψm) [5]: collapse of MMP
- nuclear morphology [6]: highly condensed nucleus, apoptotic bodies and DNA fragmentation
- BAK gene expression [7]: upregulated
- BAX gene expression [7]: upregulated
- BCL-2L1 gene expression [7]: significantly downregulated
- COX-2 gene expression [7]: inhibited
- HRK gene expression [7]: upregulation
- VEGF gene expression [7]: inhibited
- caspase-3 gene expression [7]: significantly upregulated
- caspase-6 gene expression [7]: significantly upregulated
- caspase-8 gene expression [7]: inhibited; also recorded: significantly downregulated
- caspase-9 gene expression [7]: significantly upregulated
- p53 gene expression [7]: significantly downregulated
- BCL-2L1 protein expression (immunocytochemistry) [8]: marked inhibition
- caspase-3 protein expression (immunofluorescence) [8]: significant upregulation
- caspase-6 protein expression (immunofluorescence) [8]: significant upregulation
- caspase-8 protein expression (immunofluorescence) [8]: decreased with the increase in betulin treatment
- expression of proliferative marker Ki-67 [8]: significant inhibition
- osteopontin levels (immunocytochemistry) [8]: positively inhibited
- colony formation [9]: completely eradicated cancer cells
- morphological changes of H460 cells [10]: membrane blebbing and formation of apoptotic bodies
- cytotoxicity to normal NIH-3T3 cells [11]: noncytotoxic
- morphology of 3T3 cells [12]: regained their normal morphology and started to propagate
